Drawing on US20070082017A1, “Lipid compositions and methods of use” (priority 2004, published 2007), this text covers improvement of symptoms for one molecule.

The subject of this assay is patients with dry eye symptoms. The assay is described as follows: Clinical use of lipid composition applied to the eyelid margin for dry eye. The assay is classed as in vivo, human. To be noted: Patient No. 4; 1 percent non-preserved, two weeks.

Excerpt: These patients were afflicted with meibomian gland dysfunction, various forms of dry eye syndrome, abnormal lids due to chemical burns, Stevens-Johnson syndrome, ocular pemphigoid, etc.

`C[C@H]1C[C@@H]2[C@H]([C@@H](O)C[C@@]3(C)[C@H]2CC[C@]3(O)C(=O)CO)[C@@]2(C)C=CC(=O)C=C12` [methyl prednisolone] had an improvement of symptoms of 50%.
